Measured values: patent US20050065140A1, “Serotonine reuptake inhibitor” (priority 2001, published 2005)

Tests used:
[1] = molecular target: T1, [^3H]paroxetine binding (serotonin reuptake), cerebral cortex membrane preparation (Rattus norvegicus, UniProt P31652); assay: Screening test using [^3H]paroxetine binding (Test Example 1); conditions: [^3H]paroxetine 0.15 nM, test concentration not given
T1 construct: 790 μl of the cerebral cortex membrane preparation (150 μg/tube in terms of protein); from tissue; host or cells: rat cerebral cortex membrane preparation
Experimental: Screening Test Using [^3H]Paroxetine Binding
The membrane preparation was prepared according to the method^1a) of D'amato et al. In detail, after a male rat was decapitated, the whole brain was immediately removed and the cerebral cortex was dissected therefrom under ice-cooling. A buffer solution (50 mM Tris-HCl (pH=7.4), 120 mM NaCl, 5 mM KCl) was added to the cerebral cortex in an amount of 25 times the wet weight of the cerebral cortex, followed by homogenization in an ice bath by the use of a Teflon-glass homogenizer. The homogenate was centrifuged at 4° C. and 45,000×g for 10 minutes, and the resulting precipitate was dispersed in an ice-cooled buffer solution (50 mM Tris-HCl (pH=7.4), 120 mM NaCl, 5 mM KCl) by the use of Hiscotron™, followed by centrifugation at 4° C. and 45,000×g for 10 minutes. The resulting precipitate was re-suspended and the washing procedure was repeated. The membrane preparation thus obtained was suspended in the same buffer solution as described above, and then subjected to cryopreservation at −80° C.
[^3H]paroxetine binding was measured according to the method^1b) of Habert E et al. In detail, 200 μl of a dilution (final concentration: 0.15 nM) of [^3H]paroxetine with 50 mM Tris-HCl (pH=7.4) buffer containing 120 mM NaCl and 5 mM KCl, 790 μl of the cerebral cortex membrane preparation (150 μg/tube in terms of protein), 10 μl of a solution of a test drug in dimethyl sulfoxide and 1 ml of the above-mentioned buffer solution were mixed to prepare a liquid having a total volume of 2 ml. After this liquid was allowed to react at room temperature for 60 minutes, it was immediately filtered by suction at a low pressure through glass fiber filter. The glass fiber filter was washed 4 times with 4 ml of the same buffer solution as above and then transferred to a glass vial containing 4 ml of ACS-II (Amersham), and the radioactivity remaining on the filter was measured with a liquid scintillation counter.
Non-specific binding of [^3H]paroxetine was defined as the amount of [^3H]paroxetine bound in the presence of 100 μM 5-HT.
(§1) Rate of binding inhibition was calculated by the following equation:
(§2) Rate of binding inhibition (%)=100−100×{[amount of [^3H]paroxetine bound in the presence of test substance]−[amount of [^3H]paroxetine bound in the presence of 100 μM 5-HT]/[amount of [^3H]paroxetine bound in the absence of test substance]−[amount of [^3H]paroxetine bound in the presence of 100 μM 5-HT]}

[2] = molecular target: T2, serotonin 1A receptors ([^3H]8-OH-DPAT binding, hippocampus membrane preparation) (Rattus norvegicus, UniProt P19327); assay: [^3H]8-OH-DPAT binding test (Test Example 2); conditions: [^3H]8-OH-DPAT 2 nM, test concentration not given
T2 construct: 146 μl of the hippocampus membrane preparation (80 μg/tube in terms of protein); from tissue; host or cells: rat hippocampus membrane preparation
T2 sequence (P19327 1-422): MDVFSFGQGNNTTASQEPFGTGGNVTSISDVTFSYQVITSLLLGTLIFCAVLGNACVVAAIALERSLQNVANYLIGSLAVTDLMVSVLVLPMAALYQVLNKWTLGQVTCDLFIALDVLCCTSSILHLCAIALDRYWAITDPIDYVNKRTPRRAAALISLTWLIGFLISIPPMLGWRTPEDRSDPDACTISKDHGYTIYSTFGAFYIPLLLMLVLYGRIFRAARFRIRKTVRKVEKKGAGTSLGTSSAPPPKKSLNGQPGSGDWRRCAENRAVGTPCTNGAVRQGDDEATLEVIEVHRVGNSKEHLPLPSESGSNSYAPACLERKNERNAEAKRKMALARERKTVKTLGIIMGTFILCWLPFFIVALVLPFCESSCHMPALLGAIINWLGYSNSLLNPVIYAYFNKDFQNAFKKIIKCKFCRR
Experimental: [^3H]8-OH-DPAT Binding Test
The test was carried out according to the method^2 of Hall M. D. et al. After about one week of pre-breeding, a male rat was decapitated and the brain was immediately removed. The hippocampus was dissected from the brain on ice, and 50 mM Tris-HCl (pH=7.4) was added to the hippocampus in an amount of 40 times the wet weight of the hippocampus, followed by homogenization (3 min, 1 stroke/min) in an ice bath by the use of a Teflon-glass homogenizer. Then, the homogenate was centrifuged (4° C.) at 40,000×g for 10 minutes. The resulting precipitate was dispersed in an ice-cooled buffer solution (50 mM Tris-HCl (pH=7.4)) by the use of Hiscotron™, followed by centrifugation (4° C.) at 40,000×g for 10 minutes. Moreover, the resulting precipitate was re-suspended and the washing procedure was repeated once. The precipitate thus obtained was dispersed in an ice-cooled buffer solution (50 mM Tris-HCl (pH=7.4)) by the use of Hiscotron™, and the resulting dispersion was incubated at 37° C. for 1 hour and then centrifuged (4° C.) at 40,000×g for 10 minutes. Furthermore, the resulting precipitate was re-suspended and the washing procedure was repeated once. The membrane preparation thus obtained was suspended in the same buffer solution as described above, and then subjected to cryopreservation at −80° C.
Measurement was carried out by using a liquid for reaction (total volume: 200 μl) obtained by adding 50 μl of [^3H]8-OH-DPAT (final concentration: 2 nM), 4 μl of a solution of a test drug and 146 μl of the hippocampus membrane preparation (80 μg/tube in terms of protein) to a buffer solution containing 50 mM Tris-HCl (pH=7.4) and 4 mM CaCl2. After the liquid for reaction was allowed to react at room temperature for 30 minutes, it was immediately filtered by suction at a low pressure through glass fiber filter. The glass fiber filter was washed twice with 250 μl of a buffer solution and then added to a glass vial containing 4 ml of ACS-II (Amersham), and the radioactivity bound to receptors and remaining on the filter was measured with a liquid scintillation counter. Non-specific binding of [^3H]8-OH-DPAT was defined as the amount of [^3H]8-OH-DPAT bound in the presence of 1 μM 8-OH-DPAT.
as §1
as §2, with “of [^3H]8-OH-DPAT” for “of [^3H]paroxetine”, “of 1” for “of 100”, “μM 8-OH-DPAT]/[amount” for “μM 5-HT]/[amount”, “μM 8-OH-DPAT]}” for “μM 5-HT]}”

T1 sequence (P31652 whole entry): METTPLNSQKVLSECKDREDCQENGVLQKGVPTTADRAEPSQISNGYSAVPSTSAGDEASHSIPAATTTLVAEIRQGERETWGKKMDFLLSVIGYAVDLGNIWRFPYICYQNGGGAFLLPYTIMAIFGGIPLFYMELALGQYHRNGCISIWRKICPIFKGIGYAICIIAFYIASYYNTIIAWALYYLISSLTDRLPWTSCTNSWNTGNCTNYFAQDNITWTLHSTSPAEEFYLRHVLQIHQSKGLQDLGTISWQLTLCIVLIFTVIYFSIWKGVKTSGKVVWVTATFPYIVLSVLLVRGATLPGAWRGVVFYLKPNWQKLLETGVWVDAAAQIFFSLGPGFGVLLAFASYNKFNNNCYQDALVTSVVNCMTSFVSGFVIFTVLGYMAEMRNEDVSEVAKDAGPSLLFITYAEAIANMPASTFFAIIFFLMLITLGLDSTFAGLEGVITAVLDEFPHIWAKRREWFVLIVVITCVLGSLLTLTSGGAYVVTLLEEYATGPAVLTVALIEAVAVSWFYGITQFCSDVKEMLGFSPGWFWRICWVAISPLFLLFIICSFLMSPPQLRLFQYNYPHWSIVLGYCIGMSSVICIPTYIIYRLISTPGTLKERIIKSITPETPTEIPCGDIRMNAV

SMILES | Rate of inhibition of [^3H]paroxetine binding (%) [1] | Rate of inhibition of [^3H]8-OH-DPAT binding (%) [2]
COc1ccc(Br)c(CC2CCN(CC[C@H]3CC[C@@H](CCO)CC3)CC2)c1.Cl [Example 64, cis-2-(4-(2-(4-(2-Bromo-5-methoxybenzyl)-piperidin-1-yl)ethyl)cyclohexyl)ethanol Hydrochloride] | 96% | 96%
COc1ccc(Br)c(CC2CCN(CC[C@H]3CC[C@H](NS(=O)(=O)N(C)C)CC3)CC2)c1.Cl [Example 47, trans-N′-(4-(2-(4-(2-bromo-5-methoxybenzyl)-piperidin-1-yl)ethyl)cyclohexyl)-N,N-dimethylsulfamide hydrochloride] | 100% | 95%
CCN(CCOC)[C@H]1CC[C@H](CCN2CCC(Cc3cc(OC)ccc3Br)CC2)CC1.Cl.Cl [Example 58, trans-N-(4-(2-(4-(2-bromo-5-methoxybenzyl)-piperidin-1-yl)ethyl)cyclohexyl)-N-ethyl-N-(2-methoxyethyl)amine Dihydrochloride] | 100% | 92%
CCN(CC)[C@H]1CC[C@@H](CCCN2CCC(Cc3cc(OC)ccc3Br)CC2)CC1.Cl.Cl [Example 54, cis-N-(4-(3-(4-(2-bromo-5-methoxybenzyl)-piperidin-1-yl)propyl)cyclohexyl)-N,N-diethylamine Dihydrochloride] | 80% | 99%
COc1ccc(Br)c(CC2CCN(CCC3CCN(CCO)CC3)CC2)c1.Cl.Cl [Example 6, 2-(4-(2-(4-(2-Bromo-5-methoxybenzyl)-1-piperidinyl)ethyl)-1-piperidinyl)ethanol Dihydrochloride] | 87% | 71%
CO[C@H]1CC[C@H](CCN2CCC(Cc3cc(OC(C)C)ccc3Br)CC2)CC1.Cl [Example 44, trans-4-(2-Bromo-5-isopropoxybenzyl)-1-(2-(4-methoxycyclohexyl)ethyl)piperidine Hydrochloride] | 99% | 92%
COc1ccc(Br)c(CC2CCN(CC[C@H]3CC[C@H](NC(=O)C(F)(F)F)CC3)CC2)c1.Cl [Example 48, trans-N-(4-(2-(4-(2-bromo-5-methoxybenzyl)-piperidin-1-yl)ethyl)cyclohexyl)-2,2,2-trifluoro-acetamide Hydrochloride] | 99% | 90%
COc1ccc(Br)c(CC2CCN(CC3CCc4ccccc4N3)CC2)c1.Cl.Cl (centres unmarked) [Example 69, 2-((4-(2-Bromo-5-methoxybenzyl)piperidin-1-yl)methyl)-1,2,3,4-tetrahydroquinoline Dihydrochloride] | 95% | 96%
CCN[C@H]1CC[C@H](CCN2CCC(Cc3cc(OC)ccc3Br)CC2)CC1.Cl.Cl [Example 38, trans-N-(4-(2-(4-(2-bromo-5-methoxybenzyl)-piperidin-1-yl)ethyl)cyclohexyl)-N-ethylamine Dihydrochloride] | 100% | 96%
CCN([C@H]1CC[C@H](CCCN2CCC(Cc3cc(OC(C)C)ccc3Br)CC2)CC1)S(C)(=O)=O.Cl [Example 46, trans-N-(4-(3-(4-(2-bromo-5-isopropoxy-benzyl)piperidin-1-yl)propyl)cyclohexyl)-N-ethylmethanesulfonamide Hydrochloride] | 100% | 65%
Cl.Cl.Clc1ccc(Br)c(CC2CCN(CC3CCc4ccccc4N3)CC2)c1 (centres unmarked) [Example 67, 2-((4-(2-Bromo-5-chlorobenzyl)piperidin-1-yl)methyl)-1,2,3,4-tetrahydroquinoline Dihydrochloride] | 81% | 73%
CC(C)Oc1ccc(Br)c(CC2CCN(CC3CCc4ccccc4N3)CC2)c1.Cl.Cl (centres unmarked) [Example 65, 2-((4-(2-Bromo-5-isopropoxybenzyl)piperidin-1-yl)methyl)-1,2,3,4-tetrahydroquinoline Dihydrochloride] | 97% | 60%
COc1ccc(Br)c(CC2CCN(CC3CNc4ccccc4C3)CC2)c1.Cl.Cl (centres unmarked) [Example 70, 3-((4-(2-Bromo-5-methoxybenzyl)piperidin-1-yl)methyl)-1,2,3,4-tetrahydroquinoline Dihydrochloride] | 84% | 86%
